In patent publication US9504421B2, “Moisture indicating hydrophilic polyurethane” (ACTIVE DEVICE DEVELOPMENT LIMITED, priority 2012, dated 2016):

Assay: Magnitude of colour change (light absorbance) dry vs damp for colour-formers dip-coated on MDI and TDI HPU foam (Example 25)
Conditions: for Enhancement: light absorbance damp versus dry
Procedure: A range of colour-formers were dip-coated onto MDI- and TDI-based HPU foams using the following method:
A solution of colour-former in acetone (5 mg/ml) was prepared. A 20×20×5 mm square sample of a TDI-based or MDI-based HPU foam was fully immersed in the colour-former solution (20 ml), taking care to avoid air-locking within the foam. The sample was immediately removed from the solution and excess solution removed with light squeezing followed by hand compression between layers of absorbent tissue.
The sample was oven dried at 70° C. for 10 minutes, resulting in an off-white sample in all cases.
The light absorbance of the resulting samples was recorded in the dry state at the wavelength of maximum light absorbance (when moistened). Each sample was individually fully wet out in deionised water and dried to dampness between absorbent tissue prior to immediate determination of light absorbance at the aforementioned wavelength.

Row | Compound | Enhancement (MDI HPU foam) | Enhancement (TDI HPU foam) | suitability to function as colour-forming indicator (on MDI or TDI HPU foams at the loading concentrations employed, damp absorbance versus 0.1 absorbance unit visibility limit)
1 | CN(C)c1ccc(C2(c3ccc(N(C)C)cc3)OC(=O)c3cc(N(C)C)ccc32)cc1 [Crystal Violet Lactone, crystal violet lactone] | 13.4 | 14.8 | –
2 | CCN(CC)c1ccc(-c2nc(Oc3ccc(C(C)(C)c4ccc(Oc5nc(-c6ccc(N(CC)CC)cc6)nc6ccccc56)cc4)cc3)c3ccccc3n2)cc1 [Pergascript Yellow I 3R, 4,4′-[(1-methylethylidene)bis(4,1-phenyleneoxy-4,2-quinazolinediyl)]bis[N,N-diethyl]benzamine] | 1.1 | 0.7 | not well-suited
3 | CCN(CC)c1ccc2c(c1)Oc1ccc(N(Cc3ccccc3)Cc3ccccc3)cc1C21OC(=O)c2ccccc21 (stereo not drawn) [WinCon Green, 2-dibenzylamino-6-diethylaminofluoran] | 5.7 | 7.0 | –
4 | CCN(CC)c1ccc2c(c1)Oc1cc(C)c(Nc3ccccc3)cc1C21OC(=O)c2ccccc21 (stereo not drawn) [WinCon-1, 6-diethylamino-3-methyl-2-phenylaminofluoran] | 6.2 | 6.8 | –

Second part, the molecule after the results:

Row | Enhancement (MDI HPU foam) | Enhancement (TDI HPU foam) | suitability to function as colour-forming indicator (on MDI or TDI HPU foams at the loading concentrations employed, damp absorbance versus 0.1 absorbance unit visibility limit) | Compound
5 | 5.7 | 8.1 | – | CCCCN(CCCC)c1ccc2c(c1)Oc1cc(C)c(Nc3ccccc3)cc1C21OC(=O)c2ccccc21 (stereo not drawn) [WinCon-2, 6-dibutylamino-3-methyl-2-phenylaminofluoran]
6 | 6.8 | 9.3 | – | CCN(CC)c1ccc2c(c1)Oc1cc(C)c(Nc3ccc(C)cc3C)cc1C21OC(=O)c2ccccc21 (stereo not drawn) [WinCon-15, 2-(2,4-dimethylphenylamino)-3-methyl-6-diethylaminofluoran]
7 | 6.3 | 10.3 | – | CCN(CCC(C)C)c1ccc2c(c1)Oc1cc(C)c(Nc3ccccc3)cc1C21OC(=O)c2ccccc21 (stereo not drawn) [WinCon-205, 6-(N-ethyl, N-isopentylamino)-3-methyl-2-phenylaminofluoran]
